Results as given in patent US8778947B2 (Intermune, Inc., priority 2012, dated 2014).
“Also recorded” adds a separate entry of the source. Where two headings read alike, the source gives them in different places.

Key:
[1] = cited from earlier work
CYP1A2 = CYP1A2 (Homo sapiens, UniProt P05177); details: in vitro experiments; cited from earlier work
[2] = Ciprofloxacin-pirfenidone in vitro-in vivo extrapolation (IVIVE) simulations of pirfenidone AUC change; details: from in vitro and in vivo data coupled with IVIVE simulations
Description: In brief, the process involves combining in vitro knowledge regarding the properties of a potential inhibitor [IC50 values for various cytochrome P450 (CYP) enzymes] with the in vitro knowledge regarding the pathways of metabolism of a given substrate (fraction metabolized by various CYP enzymes).

clinical = details: human, in vivo, po; for AUC(0-inf): AUC0-∞
Description: 750-mg tablets orally, as follows: • Day 2: 750 mg in the evening • Days 3-6: 750 mg twice a day (BID) • Day 7: 750 mg in the morning.
Both noncompartmental methods and a previously derived population PK (i.e., compartmental) model were used to analyze the plasma concentration-time data and characterize individual subject PK parameters.

[3] = Phase 1 open-label crossover study: safety (adverse events); format: in vivo, human (healthy subjects)
Description: The Safety population was defined as subjects who received any amount of pirfenidone or ciprofloxacin.

[4] = Ratio of Day 6/7 (during ciprofloxacin dosing) to Day 1/2 (pre-ciprofloxacin dosing), N = 27
[5] = plasma, single 801 mg oral pirfenidone with food, Study Day 1/2 (Pre-Ciprofloxacin), N = 27
[6] = plasma, single 801 mg oral pirfenidone with food, Study Day 6/7 (During Ciprofloxacin 750 mg BID), N = 27

Sequence of CYP1A2 (P05177 whole entry): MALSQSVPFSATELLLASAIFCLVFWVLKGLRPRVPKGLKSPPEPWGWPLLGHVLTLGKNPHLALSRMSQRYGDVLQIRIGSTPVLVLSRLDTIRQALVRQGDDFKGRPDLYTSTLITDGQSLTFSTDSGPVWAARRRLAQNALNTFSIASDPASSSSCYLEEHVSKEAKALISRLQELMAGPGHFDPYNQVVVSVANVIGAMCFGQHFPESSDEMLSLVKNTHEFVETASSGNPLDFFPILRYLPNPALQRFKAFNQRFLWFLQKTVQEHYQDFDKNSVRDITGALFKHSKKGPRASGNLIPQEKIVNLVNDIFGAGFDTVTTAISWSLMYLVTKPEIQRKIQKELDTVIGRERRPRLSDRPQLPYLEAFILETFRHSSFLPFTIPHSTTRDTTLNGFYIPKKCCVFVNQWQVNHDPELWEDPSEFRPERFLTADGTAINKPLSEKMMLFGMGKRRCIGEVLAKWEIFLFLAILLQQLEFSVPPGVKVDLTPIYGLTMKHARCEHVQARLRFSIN

O=C(O)c1ccc(=O)n(-c2ccccc2)c1 [5-Carboxy-Pirfenidone, 5-carboxy-pirfenidone]
AUC0-∞ Geometric Mean Ratio (90% Confidence Interval) [4]: 0.96 (0.92, 1.00)
Cmax Geometric Mean Ratio (90% Confidence Interval) [4]: 0.62 (0.57, 0.66)
AUC0-∞ Day 6/7 geometric mean lower than on Day 1/2 (after 801 mg pirfenidone): 7.7%
Cmax lower with ciprofloxacin coadministration on Day 6/7 than Day 1/2 (after 801 mg pirfenidone): 40%
AUC0-∞, Geometric Mean [5]: 32600 ng·h/mL
AUC0-∞, Mean (SD) [5]: 30.9 (4.74) μg*hr/mL
AUC0-∞, Median [5]: 30300 ng·h/mL
Cmax, Geometric Mean [5]: 6500 ng/mL
Cmax, Mean (SD) [5]: 6.1 (1.44) μg/mL
Cmax, Median [5]: 5700 ng/mL
T1/2 (apparent terminal elimination half-life), Geometric Mean [5]: 2.6 h
T1/2, Mean (SD) [5]: 2.7 (0.73) h
Tmax, Geometric Mean [5]: 2.2 h
Tmax, Mean (SD) [5]: 2.3 (0.6) h
Tmax, Median [5]: 2 h
AUC0-∞, Geometric Mean [6]: 30100 ng·h/mL
AUC0-∞, Mean (SD) [6]: 29.6 (4.52) μg*hr/mL
AUC0-∞, Median [6]: 29100 ng·h/mL
Cmax, Geometric Mean [6]: 3800 ng/mL
Cmax, Mean (SD) [6]: 3.8 (0.8) μg/mL
Cmax, Median [6]: 3800 ng/mL
T1/2 (apparent terminal elimination half-life), Geometric Mean [6]: 4 h
T1/2, Mean (SD) [6]: 4.2 (0.93) h
T1/2, Median [6]: 4 h
Tmax, Geometric Mean [6]: 2.1 h
Tmax, Mean (SD) [6]: 2 (0.76) h
Tmax, Median [6]: 2 h
T1/2 (apparent terminal elimination half-life), Geometric Mean (plasma, single 801 mg oral pirfenidone with food, Study Day 6/7 (During Ciprofloxacin 750 mg BID), N = 27, listed as 5-carboxy-pirfenidone): 4.0 h

O=C(O)c1cn(C2CC2)c2cc(N3CCNCC3)c(F)cc2c1=O [Ciprofloxacin, 1-cyclopropyl-6-fluoro-1,4-dihydro-4-oxo-7-(1-piperazinyl)-3-quinolinecarboxylic acid]
[I]in, u (free-drug concentration of the inhibitor entering the liver) ([1]; Ciprofloxacin 250 mg BID): 52
[I]in, u (free-drug concentration of the inhibitor entering the liver) ([1]; Ciprofloxacin 500 mg BID): 52
[I]in, u (free-drug concentration of the inhibitor entering the liver) ([1]; ciprofloxacin 750 mg BID): 78

Cc1ccc(=O)n(-c2ccccc2)c1 [Pirfenidone, 5-methyl-1-phenyl-2-(1H)-pyridone]
CYP isoform metabolizing pirfenidone in vitro (CYP1A2): primarily metabolized by CYP1A2; also recorded: predominantly carried out by CYP1A2
share of in vivo metabolism of pirfenidone for which CYP1A2 is responsible [2]: 70-80%
T1/2, Min, Max (human, in vivo, po): 2.8, 5.6
Tmax, Min, Max (human, in vivo, po): 1, 4.1
AUC0-∞, Min, Max (human, in vivo, po, 801 mg): 30, 88.2
Cmax, Min, Max (human, in vivo, po, 801 mg): 6.6, 14.4
T1/2, Min, Max (human, in vivo, po, 801 mg): 1.4, 3.6
Tmax, Min, Max (human, in vivo, po, 801 mg): 1, 3
AUC(0-inf) (clinical; 801 mg, Geometric Mean): 50800 ng·h/mL
AUC(0-inf) (clinical; 801 mg, Mean (SD)): 51900 ng·h/mL
AUC(0-inf) (clinical; 801 mg, Median): 53200 ng·h/mL
Cmax (clinical; 801 mg, Geometric Mean): 10700 ng/mL
Cmax (clinical; 801 mg, Mean (SD)): 10400 ng/mL
Cmax (clinical; 801 mg, Median): 10400 ng/mL
half-life (clinical; 801 mg, T1/2 (apparent terminal elimination half-life), Geometric Mean): 2.4 h
half-life (clinical; 801 mg, T1/2, Mean (SD)): 2.5 h
Tmax (clinical; 801 mg, Geometric Mean): 2.2 h
Tmax (clinical; 801 mg, Mean (SD)): 2.2 h
Tmax (clinical; 801 mg, Median): 2 h
half-life (clinical; T1/2 (apparent terminal elimination half-life), Geometric Mean): 4.1 h
half-life (clinical; T1/2, Mean (SD)): 4 h
half-life (clinical; T1/2, Median): 4 h
Tmax (clinical; Geometric Mean): 2.3 h
Tmax (clinical; Mean (SD)): 2.6 h
Tmax (clinical; Median): 2 h
subjects whose strongest AE relationship was probably related to pirfenidone ([3]; as assessed by the investigator): 6 subjects
subjects with pirfenidone-related AEs only on Day 6 ([3]; coadministration with ciprofloxacin): 5 subjects
subjects with AEs considered related to pirfenidone on Day 1 ([3]; dosing with pirfenidone only): One
